{
  "source": "ChEMBL document CHEMBL1799992",
  "about": "“Substituent effect on the preferred DNA binding mode and affinity of a homologous series of naphthalene diimides” (Bioorg Med Chem Lett, 2011)",
  "key": {"Nucleic Acid [1]": {"system": "Nucleic Acid", "experiment": "Displacement of ethidium bromide from calf thymus DNA assessed as fluorescence intensity per microL of compound at 7 x 10^-5 M after 3 mins", "format": "nucleic-acid assay", "conditions": "Bos taurus"}, "[2]": {"target": "T1, DNA topoisomerase 1 (Homo sapiens) (UniProt P11387)", "T1 sequence (whole entry)": "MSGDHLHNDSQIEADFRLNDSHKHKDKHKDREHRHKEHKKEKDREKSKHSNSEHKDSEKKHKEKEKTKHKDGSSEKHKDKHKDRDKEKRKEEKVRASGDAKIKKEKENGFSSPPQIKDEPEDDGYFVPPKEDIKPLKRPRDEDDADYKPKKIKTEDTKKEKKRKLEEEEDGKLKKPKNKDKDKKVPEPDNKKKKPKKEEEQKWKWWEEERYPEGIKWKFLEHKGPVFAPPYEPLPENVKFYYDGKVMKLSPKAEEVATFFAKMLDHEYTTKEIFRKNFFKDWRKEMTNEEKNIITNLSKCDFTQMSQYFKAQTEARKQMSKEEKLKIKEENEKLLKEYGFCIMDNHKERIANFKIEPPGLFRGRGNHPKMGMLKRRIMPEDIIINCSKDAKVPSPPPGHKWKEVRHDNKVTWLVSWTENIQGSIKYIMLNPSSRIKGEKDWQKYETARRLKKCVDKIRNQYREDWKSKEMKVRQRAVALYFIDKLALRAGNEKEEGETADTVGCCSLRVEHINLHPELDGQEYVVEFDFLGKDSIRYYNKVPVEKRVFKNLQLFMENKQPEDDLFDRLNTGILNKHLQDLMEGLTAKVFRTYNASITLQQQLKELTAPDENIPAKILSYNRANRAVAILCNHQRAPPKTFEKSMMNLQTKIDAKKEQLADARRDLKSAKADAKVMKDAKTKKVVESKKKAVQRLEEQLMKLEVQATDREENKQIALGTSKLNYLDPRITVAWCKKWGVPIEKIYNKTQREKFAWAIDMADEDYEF", "experiment": "Inhibition of human topoisomerase 1 assessed as minimum concentration required for complete re-supercoiling of pUC19 DNA after 1 hr using ethidium bromide staining by agarose gel electrophoresis"}, "Nucleic Acid [3]": {"system": "Nucleic Acid", "experiment": "Binding affinity to 20 mer GC-rich DNA in MES00 buffer at pH 6.3 by isothermal titration calorimetry", "format": "nucleic-acid assay"}, "Nucleic Acid [4]": {"system": "Nucleic Acid", "experiment": "Binding affinity to 20 mer AT-rich DNA in MES00 buffer at pH 6.3 by isothermal titration calorimetry", "format": "nucleic-acid assay"}, "Nucleic Acid [5]": {"system": "Nucleic Acid", "experiment": "Binding affinity to calf thymus DNA assessed in MES00 buffer at pH 6.3 by isothermal titration calorimetry", "format": "nucleic-acid assay", "conditions": "Bos taurus"}, "Nucleic Acid [6]": {"system": "Nucleic Acid", "experiment": "Binding affinity to calf thymus DNA assessed as high affinity binding constant in MES00 buffer at pH 6.3 by isothermal titration calorimetry", "format": "nucleic-acid assay", "conditions": "Bos taurus"}, "Nucleic Acid [7]": {"system": "Nucleic Acid", "experiment": "Binding affinity to calf thymus DNA assessed as low affinity binding constant in MES00 buffer at pH 6.3 by isothermal titration calorimetry", "format": "nucleic-acid assay", "conditions": "Bos taurus"}, "Nucleic Acid [8]": {"system": "Nucleic Acid", "experiment": "Selectivity ratio of binding constant K for AT-rich DNA to binding constant K for GC-rich DNA", "format": "nucleic-acid assay"}},
  "data": [
    {"smiles": "C[N+](C)(C)CN1C(=O)c2ccc3c4c(ccc(c24)C1=O)C(=O)N(C[N+](C)(C)C)C3=O", "values": [
      {"measurement": "Flu intensity", "setting": "Nucleic Acid [1]", "result": 400},
      {"measurement": "Activity", "setting": "[2]", "result": 3.5, "unit": "µM"},
      {"measurement": "K", "setting": "Nucleic Acid [3]", "result": 1.17, "unit": "×10⁶ /M"},
      {"measurement": "K", "setting": "Nucleic Acid [4]", "result": 1.11, "unit": "×10⁶ /M"},
      {"measurement": "K", "setting": "Nucleic Acid [5]", "result": 15, "unit": "×10⁶ /M"}
    ]},
    {"smiles": "CCCC[N+](C)(CCCC)CN1C(=O)c2ccc3c4c(ccc(c24)C1=O)C(=O)N(C[N+](C)(CCCC)CCCC)C3=O", "values": [
      {"measurement": "Flu intensity", "setting": "Nucleic Acid [1]", "result": 358},
      {"measurement": "Activity", "setting": "[2]", "result": "> 6.7", "unit": "µM"},
      {"measurement": "K", "setting": "Nucleic Acid [3]", "result": 0.38, "unit": "×10⁶ /M"},
      {"measurement": "K", "setting": "Nucleic Acid [4]", "result": 1.38, "unit": "×10⁶ /M"},
      {"measurement": "K", "setting": "Nucleic Acid [6]", "result": 78, "unit": "×10⁶ /M"},
      {"measurement": "K", "setting": "Nucleic Acid [7]", "result": 3.9, "unit": "×10⁶ /M"},
      {"measurement": "Ratio", "setting": "Nucleic Acid [8]", "result": 3.6}
    ]},
    {"smiles": "CCC[N+](C)(CCC)CN1C(=O)c2ccc3c4c(ccc(c24)C1=O)C(=O)N(C[N+](C)(CCC)CCC)C3=O", "values": [
      {"measurement": "Activity", "setting": "[2]", "result": 6.7, "unit": "µM"},
      {"measurement": "K", "setting": "Nucleic Acid [3]", "result": 0.24, "unit": "×10⁶ /M"},
      {"measurement": "K", "setting": "Nucleic Acid [4]", "result": 0.73, "unit": "×10⁶ /M"},
      {"measurement": "K", "setting": "Nucleic Acid [6]", "result": 43, "unit": "×10⁶ /M"},
      {"measurement": "K", "setting": "Nucleic Acid [7]", "result": 3, "unit": "×10⁶ /M"},
      {"measurement": "Ratio", "setting": "Nucleic Acid [8]", "result": 3}
    ]},
    {"smiles": "CC[N+](C)(CC)CN1C(=O)c2ccc3c4c(ccc(c24)C1=O)C(=O)N(C[N+](C)(CC)CC)C3=O", "values": [
      {"measurement": "Activity", "setting": "[2]", "result": 5.5, "unit": "µM"},
      {"measurement": "K", "setting": "Nucleic Acid [3]", "result": 0.37, "unit": "×10⁶ /M"},
      {"measurement": "K", "setting": "Nucleic Acid [4]", "result": 0.85, "unit": "×10⁶ /M"},
      {"measurement": "K", "setting": "Nucleic Acid [6]", "result": 31, "unit": "×10⁶ /M"},
      {"measurement": "K", "setting": "Nucleic Acid [7]", "result": 3.6, "unit": "×10⁶ /M"},
      {"measurement": "Ratio", "setting": "Nucleic Acid [8]", "result": 2.3}
    ]}
  ]
}
